From PubChem BioAssay AID1918955 (Molecular Pharmacology Branch, DTP, NCI, 2023)

Test system: NCI/ADR-RES complex spheroid viability
Assay: Anticancer human tumor NCI/ADR-RES cell line growth inhibition;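 as to viability, T/C: 100% = DMSO vehicle treated spheroids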
Conditions: for IC50: curve of first compound; for viability, T/C: stronger effect = lower value
How it was run: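 Complex spheroids of tumor cells with HUVEC and human MSCs, exposed to iadademstat combined with other agents. Each agent tested in half-log steps from near clinical Cmax (else 10 microM top), DMSO ≤0.25%.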

[1] = second compound 0.1 µM, first compound 0.00949 µM
[2] = second compound 0.1 µM, first compound 0.03 µM
[3] = second compound 0.1 µM, first compound 0.0949 µM
[4] = second compound 0.1 µM, first compound 0.3 µM
[5] = second compound 0.1 µM, first compound 0.949 µM
[6] = second compound 0.1 µM, first compound 3 µM
[7] = second compound 0.316 µM, first compound 0.00949 µM
[8] = second compound 0.316 µM, first compound 0.03 µM
[9] = second compound 0.316 µM, first compound 0.0949 µM
[10] = second compound 0.316 µM, first compound 0.3 µM
[11] = second compound 0.316 µM, first compound 0.949 µM
[12] = second compound 0.316 µM, first compound 3 µM
[13] = second compound 1 µM, first compound 0.00949 µM
[14] = second compound 1 µM, first compound 0.03 µM
[15] = second compound 1 µM, first compound 0.0949 µM
[16] = second compound 1 µM, first compound 0.3 µM
[17] = second compound 1 µM, first compound 0.949 µM
[18] = second compound 1 µM, first compound 3 µM
[19] = second compound 3.16 µM, first compound 0.00949 µM
[20] = second compound 3.16 µM, first compound 0.03 µM
[21] = second compound 3.16 µM, first compound 0.0949 µM
[22] = second compound 3.16 µM, first compound 0.3 µM
[23] = second compound 3.16 µM, first compound 0.949 µM
[24] = second compound 3.16 µM, first compound 3 µM
[25] = second compound 10 µM, first compound 0.00949 µM
[26] = second compound 10 µM, first compound 0.03 µM
[27] = second compound 10 µM, first compound 0.0949 µM
[28] = second compound 10 µM, first compound 0.3 µM
[29] = second compound 10 µM, first compound 0.949 µM
[30] = second compound 10 µM, first compound 3 µM

Structure (SMILES) | IC50 (second compound 0.1 µM) | IC50 (second compound 0.316 µM) | IC50 (second compound 1 µM) | IC50 (second compound 3.16 µM) | IC50 (second compound 10 µM) | viability, T/C [1] | viability, T/C [2] | viability, T/C [3] | viability, T/C [4] | viability, T/C [5] | viability, T/C [6] | viability, T/C [7] | viability, T/C [8] | viability, T/C [9] | viability, T/C [10] | viability, T/C [11] | viability, T/C [12] | viability, T/C [13] | viability, T/C [14] | viability, T/C [15] | further results
NS(=O)(=O)OCC1CC(n2ccc3c(NC4CCc5ccccc54)ncnc32)CC1O (stereo not given) + NC1CC1c1ccc(-c2cccc(O)c2)cc1 | 1130 nM | 1030 nM | 1160 nM | 1110 nM | 1130 nM | 99.2% | 90.5% | 92.1% | 78.4% | 55% | 20.6% | 96.7% | 100% | 85.9% | 77.5% | 51.6% | 22.2% | 98.5% | 88.4% | 86.7% | viability, T/C [16]: 78.6%; viability, T/C [17]: 54.5%; viability, T/C [18]: 23.2%; viability, T/C [19]: 96.8%; viability, T/C [20]: 94.8%; viability, T/C [21]: 86.3%; viability, T/C [22]: 77%; viability, T/C [23]: 54.3%; viability, T/C [24]: 22.2%; viability, T/C [25]: 92%; viability, T/C [26]: 89.9%; viability, T/C [27]: 81%; viability, T/C [28]: 75.1%; viability, T/C [29]: 53.3%; viability, T/C [30]: 27%
Nc1ccccc1NC(=O)c1ccc(CNC(=O)OCc2cccnc2)cc1 + NC1CC1c1ccc(-c2cccc(O)c2)cc1 | 824 nM | 907 nM | 906 nM | 976 nM | 882 nM | 93.7% | 97.9% | 85.7% | 69.1% | 48.3% | 27.2% | 99.2% | 95.9% | 95% | 72.8% | 50.3% | 25.8% | 93.3% | 91.1% | 85.3% | viability, T/C [16]: 71.5%; viability, T/C [17]: 49.1%; viability, T/C [18]: 26.7%; viability, T/C [19]: 93.5%; viability, T/C [20]: 89.5%; viability, T/C [21]: 80.5%; viability, T/C [22]: 71%; viability, T/C [23]: 49.4%; viability, T/C [24]: 30.8%; viability, T/C [25]: 83.4%; viability, T/C [26]: 84.1%; viability, T/C [27]: 74.7%; viability, T/C [28]: 60.9%; viability, T/C [29]: 51.3%; viability, T/C [30]: 31%
O=C(C=Cc1cccc(S(=O)(=O)Nc2ccccc2)c1)NO + NC1CC1c1ccc(-c2cccc(O)c2)cc1 | 79.4 nM | 85.5 nM | 79 nM | 90 nM | 73.3 nM | 110% | 85.7% | 42.1% | 17.2% | 5.63% | 1.57% | 102% | 86.8% | 44.9% | 17.3% | 7.86% | 1.94% | 107% | 77.5% | 46% | viability, T/C [16]: 18.2%; viability, T/C [17]: 8.7%; viability, T/C [18]: 1.47%; viability, T/C [19]: 97%; viability, T/C [20]: 76.4%; viability, T/C [21]: 49.8%; viability, T/C [22]: 22.1%; viability, T/C [23]: 9.4%; viability, T/C [24]: 1.58%; viability, T/C [25]: 102%; viability, T/C [26]: 71.5%; viability, T/C [27]: 44.1%; viability, T/C [28]: 22.5%; viability, T/C [29]: 13.5%; viability, T/C [30]: 3.92%
